Laboratory results from patent US11339130B1 (Blade Therapeutics, Inc., priority 2016, dated 2022).
pIC50: −log10 of the molar value.

Columns and labels:
[1] = tested on: Calpain activity in SH-SY5Y cells (SBDP-150); test: SH-SY5Y Spectrin western blot assay (SBDP-150 breakdown product, A23187-induced); format: cell-based; details: Homo sapiens; SH-SY5Y cells, A23187-induced SBDP-150, western blot; read-out: SH-SY5Y Spectrin IC50
[2] = tested on: Calpain activity in SH-SY5Y cells; test: SH-SY5Y + AMC fluorescence assay (Suc-LLVY-AMC substrate); format: cell-based; details: read-out: SH-SY5Y + AMC IC50
Human Calpain 2/NS1 = molecular target: T1, Human Calpain 2/NS1 (Homo sapiens, UniProt P17655); test: Calpain inhibition continuous fluorescence (FRET) assay, Human Calpain 2/NS1; format: biochemical; details: read-out: Human Calpain 2/NS1 IC50
T1 sequence (P17655 1-700): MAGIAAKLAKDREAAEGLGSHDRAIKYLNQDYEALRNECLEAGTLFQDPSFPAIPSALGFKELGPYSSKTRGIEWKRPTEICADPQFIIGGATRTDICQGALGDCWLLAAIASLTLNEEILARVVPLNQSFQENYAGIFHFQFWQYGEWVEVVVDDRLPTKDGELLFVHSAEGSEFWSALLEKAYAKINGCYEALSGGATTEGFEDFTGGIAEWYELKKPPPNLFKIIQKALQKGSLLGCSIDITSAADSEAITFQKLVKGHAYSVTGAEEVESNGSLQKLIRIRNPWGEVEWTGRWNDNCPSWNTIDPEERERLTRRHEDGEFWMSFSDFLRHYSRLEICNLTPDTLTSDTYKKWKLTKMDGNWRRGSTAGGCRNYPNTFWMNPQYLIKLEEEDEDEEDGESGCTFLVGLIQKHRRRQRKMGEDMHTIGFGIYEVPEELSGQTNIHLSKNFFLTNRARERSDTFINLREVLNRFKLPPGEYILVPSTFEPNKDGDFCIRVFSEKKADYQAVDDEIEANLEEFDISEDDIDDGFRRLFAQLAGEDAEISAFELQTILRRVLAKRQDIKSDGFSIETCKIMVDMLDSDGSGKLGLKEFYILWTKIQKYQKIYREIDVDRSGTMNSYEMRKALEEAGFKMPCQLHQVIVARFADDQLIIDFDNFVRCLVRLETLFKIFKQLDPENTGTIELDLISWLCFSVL
T1 sequence (P04632 1-268 partner): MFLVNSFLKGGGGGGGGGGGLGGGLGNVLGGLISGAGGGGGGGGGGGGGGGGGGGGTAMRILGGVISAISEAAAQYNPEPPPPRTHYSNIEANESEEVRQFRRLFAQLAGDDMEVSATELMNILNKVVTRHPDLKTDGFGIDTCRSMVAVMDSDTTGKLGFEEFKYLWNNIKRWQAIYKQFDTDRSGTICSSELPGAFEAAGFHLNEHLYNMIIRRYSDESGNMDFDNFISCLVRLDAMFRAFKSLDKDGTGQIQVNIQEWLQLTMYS
In short: (§1)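 Inhibitors were preincubated with calpain in 50 mM Tris pH 7.5, 100 mM NaCl, 1 mM DTT at 25C. Reactions were started with 5-FAM/QXL 520 FRET peptide substrate plus CaCl2 and read at 490/520 nm for 10 min. IC50s came from 4-parameter fits of slope rates (1-5 min).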

Human Calpain 1/NS1 = molecular target: T2, Human Calpain 1/NS1 (Homo sapiens, UniProt P07384); test: Calpain inhibition continuous fluorescence (FRET) assay, Human Calpain 1/NS1; format: biochemical; details: read-out: Human Calpain 1/NS1 IC50
T2 sequence (P07384 1-714): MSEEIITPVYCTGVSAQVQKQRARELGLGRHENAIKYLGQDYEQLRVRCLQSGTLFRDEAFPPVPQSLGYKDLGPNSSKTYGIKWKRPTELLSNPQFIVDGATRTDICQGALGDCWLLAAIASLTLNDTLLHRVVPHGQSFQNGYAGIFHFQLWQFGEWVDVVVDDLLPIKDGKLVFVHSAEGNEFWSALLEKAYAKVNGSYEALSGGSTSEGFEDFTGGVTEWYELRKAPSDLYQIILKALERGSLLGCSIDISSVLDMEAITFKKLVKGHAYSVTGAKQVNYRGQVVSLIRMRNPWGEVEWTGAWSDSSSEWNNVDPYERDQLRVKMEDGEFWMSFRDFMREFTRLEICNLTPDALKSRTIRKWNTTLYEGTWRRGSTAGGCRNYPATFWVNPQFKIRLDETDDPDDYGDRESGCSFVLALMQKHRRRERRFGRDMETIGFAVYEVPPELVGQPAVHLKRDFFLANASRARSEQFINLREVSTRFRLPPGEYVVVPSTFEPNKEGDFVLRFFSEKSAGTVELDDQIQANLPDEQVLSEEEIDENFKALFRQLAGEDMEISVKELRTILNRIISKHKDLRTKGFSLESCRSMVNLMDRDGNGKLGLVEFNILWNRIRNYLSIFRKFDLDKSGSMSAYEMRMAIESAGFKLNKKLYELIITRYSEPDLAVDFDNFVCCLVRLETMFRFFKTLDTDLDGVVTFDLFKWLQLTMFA
T2 sequence (P04632 1-268 partner): T1 sequence (P04632 1-268 partner)
In short: as §1

Human Calpain 9/NS1 = molecular target: T3, Human Calpain 9/NS1 (Homo sapiens, UniProt O14815); test: Calpain inhibition continuous fluorescence (FRET) assay, Human Calpain 9/NS1; format: biochemical; details: read-out: Human Calpain 9/NS1 IC50
T3 sequence (O14815 1-690): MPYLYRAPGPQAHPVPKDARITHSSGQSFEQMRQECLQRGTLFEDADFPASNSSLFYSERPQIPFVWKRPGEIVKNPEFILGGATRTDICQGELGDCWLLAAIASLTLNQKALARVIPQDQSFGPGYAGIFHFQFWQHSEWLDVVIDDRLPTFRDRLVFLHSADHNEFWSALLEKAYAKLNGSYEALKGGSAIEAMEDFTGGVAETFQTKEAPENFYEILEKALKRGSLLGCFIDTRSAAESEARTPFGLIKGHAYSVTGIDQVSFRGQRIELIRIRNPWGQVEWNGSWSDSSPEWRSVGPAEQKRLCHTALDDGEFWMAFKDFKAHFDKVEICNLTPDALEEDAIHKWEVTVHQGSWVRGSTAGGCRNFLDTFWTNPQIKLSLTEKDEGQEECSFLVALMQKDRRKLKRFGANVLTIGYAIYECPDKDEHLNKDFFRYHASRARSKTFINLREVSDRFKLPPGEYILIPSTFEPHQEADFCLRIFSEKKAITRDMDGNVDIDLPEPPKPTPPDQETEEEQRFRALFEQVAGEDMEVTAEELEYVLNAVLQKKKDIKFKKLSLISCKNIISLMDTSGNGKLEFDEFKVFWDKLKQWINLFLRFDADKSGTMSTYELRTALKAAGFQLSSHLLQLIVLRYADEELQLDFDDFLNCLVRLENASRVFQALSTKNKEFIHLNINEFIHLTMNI
T3 sequence (P04632 1-268 partner): T1 sequence (P04632 1-268 partner)
In short: as §1

SMILES | pIC50 [1] | pIC50 [2] | pIC50 (Human Calpain 2/NS1) | pIC50 (Human Calpain 1/NS1) | pIC50 (Human Calpain 9/NS1)
COCCOCCOc1ccc(-n2nc(C)cc2C(=O)NC(Cc2ccccc2)C(=O)C(N)=O)cc1 (stereo not drawn) [Compound 443, N-(4-amino-3,4-dioxo-1-phenylbutan-2-yl)-1-(4-(2-(2-methoxyethoxy)ethoxy)phenyl)-3-methyl-1H-pyrazole-5-carboxamide] | > 5.00 | 4.60 to 5.00 | > 5.52 | > 5.52 | > 5.52
COCCOCCOc1cccc(-n2nc(C)cc2C(=O)NC(Cc2ccccc2)C(=O)C(N)=O)c1 (stereo not drawn) [Compound 444, N-(4-amino-3,4-dioxo-1-phenylbutan-2-yl)-1-(3-(2-(2-methoxyethoxy)ethoxy)phenyl)-3-methyl-1H-pyrazole-5-carboxamide] | 4.60 to 5.00 | > 5.00 | > 5.52 | > 5.52 | > 5.52
Cc1cc(C(=O)NC(Cc2ccccc2)C(=O)C(N)=O)n(-c2ccc(C(F)(F)F)cn2)n1 (stereo not drawn) [Compound 445, N-(4-amino-3,4-dioxo-1-phenylbutan-2-yl)-3-methyl-1-(5-(trifluoromethyl)pyridin-2-yl)-1H-pyrazole-5-carboxamide] | > 5.00 | < 4.60 | > 5.52 | > 5.52 | > 5.52
Cn1cc(C(=O)NC(Cc2ccccc2)C(=O)C(N)=O)c(-c2ccc(F)cc2)n1 (stereo not drawn) [Compound 447, N-(4-amino-3,4-dioxo-1-phenylbutan-2-yl)-3-(4-fluorophenyl)-1-methyl-1H-pyrazole-4-carboxamide] | 4.60 to 5.00 | 4.60 to 5.00 | > 5.52 | > 5.52 | > 5.52
Cc1cc(C(=O)NC(Cc2ccccc2)C(=O)C(=O)NC2CC2)n(-c2cnccn2)n1 (stereo not drawn) [Compound 454, N-(4-(cyclopropylamino)-3,4-dioxo-1-phenylbutan-2-yl)-3-methyl-1-(pyrazin-2-yl)-1H-pyrazole-5-carboxamide] | 4.60 to 5.00 | > 5.00 | > 5.52 | > 5.52 | 5.00 to 5.52
Cc1cc(C(=O)NC(Cc2ccccc2)C(=O)C(=O)NC2CC2)n(-c2ncccn2)n1 (stereo not drawn) [Compound 455, N-(4-(cyclopropylamino)-3,4-dioxo-1-phenylbutan-2-yl)-3-methyl-1-(pyrimidin-2-yl)-1H-pyrazole-5-carboxamide] | < 4.60 | > 5.00 | > 5.52 | 5.00 to 5.52 | < 5.00
Cc1cc(C(=O)NC(Cc2ccccc2)C(=O)C(=O)NC2CC2)n(-c2ccccn2)n1 (stereo not drawn) [Compound 456, N-(4-(cyclopropylamino)-3,4-dioxo-1-phenylbutan-2-yl)-3-methyl-1-(pyridin-2-yl)-1H-pyrazole-5-carboxamide] | < 4.60 | > 5.00 | > 5.52 | > 5.52 | > 5.52

Now from value to compound:

pIC50 [1] | pIC50 [2] | pIC50 (Human Calpain 2/NS1) | pIC50 (Human Calpain 1/NS1) | pIC50 (Human Calpain 9/NS1) | SMILES
4.60 to 5.00 | > 5.00 | > 5.52 | > 5.52 | > 5.52 | Cn1cc(C(=O)NC(Cc2ccccc2)C(=O)C(=O)NC2CC2)c(-c2ccccc2)n1 (stereo not drawn) [Compound 458, N-(4-(cyclopropylamino)-3,4-dioxo-1-phenylbutan-2-yl)-1-methyl-3-phenyl-1H-pyrazole-4-carboxamide]
4.60 to 5.00 | > 5.00 | > 5.52 | > 5.52 | > 5.52 | Cc1nc(-c2ccccc2)c(C(=O)NC(Cc2ccccc2)C(=O)C(=O)NC2CC2)o1 (stereo not drawn) [Compound 459, N-(4-(cyclopropylamino)-3,4-dioxo-1-phenylbutan-2-yl)-2-methyl-4-phenyloxazole-5-carboxamide]
< 4.60 | < 4.60 | > 5.52 | > 5.52 | > 5.52 | CCCCC(NC(=O)c1oc(C)nc1-c1ccccc1)C(=O)C(=O)NC1CC1 (stereo not drawn) [Compound 460, N-(1-(cyclopropylamino)-1,2-dioxoheptan-3-yl)-2-methyl-4-phenyloxazole-5-carboxamide]
> 5.00 | < 4.60 | > 5.52 | > 5.52 | > 5.52 | O=C(NC1CC1)C(=O)C(Cc1ccccc1)NC(=O)c1cnoc1-c1ccccc1 (stereo not drawn) [Compound 461, N-(4-(cyclopropylamino)-3,4-dioxo-1-phenylbutan-2-yl)-5-phenylisoxazole-4-carboxamide]
> 5.00 | < 4.60 | > 5.52 | > 5.52 | > 5.52 | NC(=O)C(=O)C(CCc1ccccc1)NC(=O)c1nsnc1-c1ccccc1 (stereo not drawn) [Compound 463, N-(1-amino-1,2-dioxo-5-phenylpentan-3-yl)-4-phenyl-1,2,5-thiadiazole-3-carboxamide]
> 5.00 | > 5.00 | > 5.52 | > 5.52 | > 5.52 | NC(=O)C(=O)C(Cc1ccc(F)cc1)NC(=O)c1nsnc1-c1ccccc1 (stereo not drawn) [Compound 464, N-(4-amino-1-(4-fluorophenyl)-3,4-dioxobutan-2-yl)-4-phenyl-1,2,5-thiadiazole-3-carboxamide]
> 5.00 | < 4.60 | > 5.52 | > 5.52 | > 5.52 | CC(C)CC(NC(=O)c1nsnc1-c1ccccc1)C(=O)C(N)=O (stereo not drawn) [Compound 465, N-(1-amino-5-methyl-1,2-dioxohexan-3-yl)-4-phenyl-1,2,5-thiadiazole-3-carboxamide]
> 5.00 | < 4.60 | > 5.52 | > 5.52 | > 5.52 | Cc1cc(C)cc(CC(NC(=O)c2nsnc2-c2ccccc2)C(=O)C(N)=O)c1 (stereo not drawn) [Compound 466, N-(4-amino-1-(3,5-dimethylphenyl)-3,4-dioxobutan-2-yl)-4-phenyl-1,2,5-thiadiazole-3-carboxamide]
